Assay results: patent publication US8461107B2 (Merck Sharp & Dohme Corp., priority 2008, dated 2013)

Biological target: T1, HCV genotype 1b (BK) NS3 modified with a R155K mutation (Hepatitis C virus genotype 1b, UniProt P26663, R1181K)
T1 construct: HCV genotype 1b (BK) NS3 modified with a R155K mutation
Experiment: HCV NS3 protease time-resolved fluorescence (TRF) assay, NS3 protease 1b R155K Ki activity
Type: biochemical
Conditions: HCV genotype 1b (BK) NS3 with R155K mutation; TRF peptide substrate 100 nM; Ki derived from IC50
Outline: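 Pre-incubation of NS3/NS4A protease (genotype 1b BK, R155K) with inhibitor for 30 min, then 1 h at room temperature with 100 nM TRF peptide substrate in pH 7.5 HEPES buffer with 10 mM DTT. Reaction quenched with pH 5.5 MES; time-resolved fluorescence read (ex 340/em 615 nm). Ki derived from four-parameter IC50 fit via IC50=Ki(1+[S]/KM).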

With `C=C[C@@H]1C[C@]1(NC(=O)[C@@H]1C[C@@H]2CN1C(=O)[C@H](C(C)(C)C)NC(=O)O[C@@H]1CCC[C@H]1C/C=C/CCn1c(cc3ccccc3c1=O)O2)C(=O)NS(=O)(=O)C1CC1` [(3aR,7S,10S,12R,23E,25aS)-7-tert-butyl-N-((1R,2S)-1-{[(cyclopropylsulfonyl)amino]carbonyl}-2-vinylcyclopropyl)-5,8,19-trioxo-1,2,3,3a,5,6,7,8,11,12,21,22,25,25a-tetradecahydro-10H,19H-9,12-methanocyclopenta[18,19][1,10,3,6,12]dioxatriazacyclononadecino[12,11-b]isoquinoline-10-carboxamide] the Ki was < 100 pM.
With `C=C[C@@H]1C[C@]1(NC(=O)[C@@H]1C[C@@H]2CN1C(=O)[C@H](C1CCCC1)NC(=O)O[C@@H]1CCC[C@H]1C/C=C/CCn1c(cc3cc(Cl)ccc3c1=O)O2)C(=O)NS(=O)(=O)C1CC1` [(3aR,7S,10S,12R,23E,25aS)-16-chloro-7-cyclopentyl-N-((1R,2S)-1-{[(cyclopropylsulfonyl)amino]carbonyl}-2-vinylcyclopropyl)-5,8,19-trioxo-1,2,3,3a,5,6,7,8,11,12,21,22,25,25a-tetradecahydro-10H,19H-9,12-methanocyclopenta[18,19][1,10,3,6,12]dioxatriazacyclononadecino[12,11-b]isoquinoline-10-carboxamide] the Ki was < 100 pM.
In the case of `C=C[C@@H]1C[C@]1(NC(=O)[C@@H]1C[C@@H]2CN1C(=O)[C@H](C(C)(C)C)NC(=O)O[C@@H]1CCC[C@H]1CCCCCCn1c(cc3ccccc3c1=O)O2)C(=O)NS(=O)(=O)C1CC1` [(3aR,7S,10S,12R,26aR)-7-tert-butyl-N-((1R,2S)-1-{[(cyclopropylsulfonyl)amino]carbonyl}-2-vinylcyclopropyl)-5,8,19-trioxo-2,3,3a,5,6,7,8,11,12,21,22,23,24,25,26,26a-hexadecahydro-1H,10H,19H-9,12-methanocyclopenta[19,20][1,10,3,6,12]dioxatriazacycloicosino[12,11-b]isoquinoline-10-carboxamide], the Ki is reported as 100 to 500 pM.
For `C=C[C@@H]1C[C@]1(NC(=O)[C@@H]1C[C@@H]2CN1C(=O)[C@H](C1CCCC1)NC(=O)O[C@@H]1CCC[C@H]1CC/C=C/Cc1c(nc3cc(OC)ccn3c1=O)O2)C(=O)NS(=O)(=O)C1CC1` [Example 57, (3aR,7S,10S,12R,22E,25aS)-7-cyclopentyl-N-((1R,2S)-1-{[(cyclopropylsulfonyl)amino]carbonyl}-2-vinylcylcopropyl)-16-methoxy-5,8,20-trioxo-1,2,3,3a,5,6,7,8,11,12,21,24,25,25a-tetradecahydro-10H,20H-9,12-methanocyclopenta[r]pyrido[1′,2′:1,2]pyrimido[4,5-k][1,10,3,6]dioxadiazacyclononadecine-10-carboxamide], the Ki was < 100 pM.
With `C=C[C@@H]1C[C@]1(NC(=O)[C@@H]1C[C@@H]2CN1C(=O)[C@H](C1CCCC1)NC(=O)O[C@@H]1CCC[C@H]1CCCCCn1c(nc3cc(C(F)(F)F)ccc3c1=O)O2)C(=O)NS(=O)(=O)C1CC1` [(3aR,7S,10S,12R,25aR)-7-cyclopentyl-N-((1R,2S)-1-{[(cyclopropylsulfonyl)amino]carbonyl}-2-vinylcyclopropyl)-5,8,19-trioxo-16-(trifluoromethyl)-1,2,3,3a,5,6,7,8,11,12,21,22,23,24,25,25a-hexadecahydro-10H,19H-9,12-methanocyclopenta[18,19][1,10,3,6,12]dioxatriazacyclononadecino[11,12-b]quinazoline-10-carboxamide] the Ki was 100 to 500 pM.
In the case of `C=C[C@@H]1C[C@]1(NC(=O)[C@@H]1C[C@@H]2CN1C(=O)[C@H](C1CCCC1)NC(=O)O[C@@H]1CCC[C@H]1CCCCCn1c(nc3cc(OC)ccc3c1=O)O2)C(=O)NS(=O)(=O)C1(C)CC1` [(1R,18R,22R,26S,29S)-26-cyclopentyl-7-methoxy-N-[(1R,2S)-1-({[(1-methylcyclopropyl)sulfonyl]amino}carbonyl)-2-vinylcyclopropyl]-11,24,27-trioxo-2,23-dioxa-4,12,25,28-tetraazapentacyclo[26.2.1.0^3,12.0^5,10.0^18,22]hentriaconta-3,5,7,9-tetraene-29-carboxamide], the Ki is reported as < 100 pM.
In the case of `CC[C@@H]1C[C@]1(NC(=O)[C@@H]1C[C@@H]2CN1C(=O)[C@H](C1CCCC1)NC(=O)O[C@@H]1CCC[C@H]1CC/C=C/Cn1c(nc3cc(Cl)ccc3c1=O)O2)C(=O)NS(=O)(=O)C1CC1` [(3aR,7S,10S,12R,22E,25aS)-16-chloro-7-cyclopentyl-N-((1R,2R)-1-{[(cyclopropylsulfonyl)amino]carbonyl}-2-ethylcyclopropyl)-5,8,19-trioxo-1,2,3,3a,5,6,7,8,11,12,21,24,25,25a-tetradecahydro-10H,19H-9,12-methanocyclopenta[18,19][1,10,3,6,12]dioxatriazacyclononadecino[11,12-b]quinazoline-10-carboxamide], the Ki is reported as 100 to 500 pM.
In the case of `CC[C@@H]1C[C@]1(NC(=O)[C@@H]1C[C@@H]2CN1C(=O)[C@H](C1CCCC1)NC(=O)O[C@@H]1CCC[C@H]1CC/C=C/Cn1c(nc3ccccc3c1=O)O2)C(=O)NS(=O)(=O)C1CC1` [(3aR,7S,10S,12R,22E,25aS)-7-cyclopentyl-N-((1R,2R)-1-{[(cyclopropylsulfonyl)amino]carbonyl}-2-ethylcyclopropyl)-5,8,19-trioxo-1,2,3,3a,5,6,7,8,11,12,21,24,25,25a-tetradecahydro-10H,19H-9,12-methanocyclopenta[18,19][1,10,3,6,12]dioxatriazacyclononadecino[11,12-b]quinazoline-10-carboxamide], the Ki is reported as 100 to 500 pM.
For `C=C[C@@H]1C[C@]1(NC(=O)[C@@H]1C[C@@H]2CN1C(=O)[C@H](C(C)(C)C)NC(=O)O[C@H]1CCC[C@@H]1CCCCCCn1c(cc3ccccc3c1=O)O2)C(=O)NS(=O)(=O)C1CC1` [(3aS,7S,10S,12R,26aS)-7-tert-butyl-N-((1R,2S)-1-{[(cyclopropylsulfonyl)amino]carbonyl}-2-vinylcyclopropyl)-5,8,19-trioxo-2,3,3a,5,6,7,8,11,12,21,22,23,24,25,26,26a-hexadecahydro-1H,10H,19H-9,12-methanocyclopenta[19,20][1,10,3,6,12]dioxatriazacycloicosino[12,11-b]isoquinoline-10-carboxamide], the Ki was 500 to 1000 pM.
`CC[C@@H]1C[C@]1(NC(=O)[C@@H]1C[C@@H]2CN1C(=O)[C@H](C1CCCC1)NC(=O)O[C@@H]1CCC[C@H]1CC/C=C/Cn1c(nc3cc(C#N)ccc3c1=O)O2)C(=O)NS(=O)(=O)C1CC1` [(3aR,7S,10S,12R,22E,25aS)-16-cyano-7-cyclopentyl-N-((1R,2R)-1-{[(cyclopropylsulfonyl)amino]carbonyl}-2-ethylcyclopropyl)-5,8,19-trioxo-1,2,3,3a,5,6,7,8,11,12,21,24,25,25a-tetradecahydro-10H,19H-9,12-methanocyclopenta[18,19][1,10,3,6,12]dioxatriazacyclononadecino[11,12-b]quinazoline-10-carboxamide] showed a Ki of 100 to 500 pM.
In the case of `C=C[C@@H]1C[C@]1(NC(=O)[C@@H]1C[C@@H]2CN1C(=O)[C@H](C1CCCC1)NC(=O)O[C@@H]1CCC[C@H]1CCCCCn1c(nc3cc(Cl)ccc3c1=O)O2)C(=O)NS(=O)(=O)C1CC1` [(3aR,7S,10S,12R,25aR)-16-chloro-7-cyclopentyl-N-((1R,2S)-1-{[(cyclopropylsulfonyl)amino]carbonyl}-2-vinylcyclopropyl)-5,8,19-trioxo-1,2,3,3a,5,6,7,8,11,12,21,22,23,24,25,25a-hexadecahydro-10H,19H-9,12-methanocyclopenta[18,19][1,10,3,6,12]dioxatriazacyclononadecino[11,12-b]quinazoline-10-carboxamide], the Ki is reported as < 100 pM.
With `C=C[C@@H]1C[C@]1(NC(=O)[C@@H]1C[C@@H]2CN1C(=O)[C@H](C1CCCC1)NC(=O)O[C@@H]1C[C@H]1CCCCCn1c(cc3ccccc3c1=O)O2)C(=O)NS(=O)(=O)C1CC1` [(1aR,5S,8S,10R,23aR)-5-cyclopentyl-N-((1R,2S)-1-{[(cyclopropylsulfonyl)amino]carbonyl}-2-vinylcyclopropyl)-3,6,17-trioxo-1,1a,3,4,5,6,9,10,19,20,21,22,23,23a-tetradecahydro-8H,17H-7,10-methanocyclopropa[18,19][1,10,3,6,12]dioxatriazacyclononadecino[12,11-b]isoquinoline-8-carboxamide] the Ki was < 100 pM.
For `C=C[C@@H]1C[C@]1(NC(=O)[C@@H]1C[C@@H]2CN1C(=O)[C@H](C1CCCCC1)NC(=O)O[C@@H]1CCC[C@H]1C/C=C/CCn1c(cc3cc(Cl)ccc3c1=O)O2)C(=O)NS(=O)(=O)C1CC1` [(3aR,7S,10S,12R,23E,25aS)-16-chloro-7-cyclohexyl-N-((1R,2S)-1-{[(cyclopropylsulfonyl)amino]carbonyl}-2-vinylcyclopropyl)-5,8,19-trioxo-1,2,3,3a,5,6,7,8,11,12,21,22,25,25a-tetradecahydro-10H,19H-9,12-methanocyclopenta[18,19][1,10,3,6,12]dioxatriazacyclononadecino[12,11-b]isoquinoline-10-carboxamide], the Ki was < 100 pM.
With `C=C[C@@H]1C[C@]1(NC(=O)[C@@H]1C[C@@H]2CN1C(=O)[C@H](C1CCCC1)NC(=O)O[C@@H]1CCC[C@H]1CC/C=C/Cn1c(nc3cc(-c4ccccc4)ccc3c1=O)O2)C(=O)NS(=O)(=O)C1CC1` [(3aR,7S,10S,12R,22E,25aS)-7-cyclopentyl-N-((1R,2S)-1-{[(cyclopropylsulfonyl)amino]carbonyl}-2-vinylcyclopropyl)-5,8,19-trioxo-16-phenyl-1,2,3,3a,5,6,7,8,11,12,21,24,25,25a-tetradecahydro-10H,19H-9,12-methanocyclopenta[18,19][1,10,3,6,12]dioxatriazacyclononadecino[11,12-b]quinazoline-10-carboxamide] the Ki was < 100 pM.
`C=C[C@@H]1C[C@]1(NC(=O)[C@@H]1C[C@@H]2CN1C(=O)[C@H](C1CCCC1)NC(=O)O[C@@H]1CCC[C@H]1CC1CC1CCn1c(cc3cc(Cl)ccc3c1=O)O2)C(=O)NS(=O)(=O)C1CC1` (stereo partly drawn) showed a Ki of 100 to 500 pM.
